pEC50, pIC50: −log10 of the molar value. ≈ marks a conversion by molar mass, not a printed value. Like-named read-outs stand apart in the source and are kept apart here.
Legend:
MRSA PK = biological target: T1, MRSA PK (Staphylococcus aureus, UniProt Q6GG09); assay: MRSA PK activity, continuous LDH-coupled assay; type: biochemical, S. aureus (MRSA strain Sanger 252); settings: for inhibition at 10 µM / inhibition at 1 µM: read-out: % inhibition at the highest concentration tested (IC50); for fold more potent: compared to 10a
T1 construct: His tag (pET-28a(+) vector) (N); made in house; host or cells: E. coli BL-21 (DE3)
How it was run: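 Purified His-tagged MRSA PK (15 nM, E. coli-expressed) started reactions run up to 5 min at 30 °C. Activity was followed continuously by LDH-coupled NADH oxidation at 340 nm, with DMSO ≤1%. IC50 came from four-parameter variable-slope fits.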

S. aureus ATCC 29213 = assay: In vitro susceptibility, broth microdilution MIC; type: cell-based, Staphylococcus aureus
How it was run: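 The MIC against S. aureus 29213 was determined by CLSI 2-fold serial broth microdilution in Mueller Hinton broth. Plates were incubated for 18–24 h at 37 °C and read at OD600 with background subtracted. The MIC was the lowest concentration giving complete growth inhibition versus compound-free wells.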

[1] = Tables 1-6, 2 mM ADP, 10 mM PEP, 15 nM PK, read-out: IC50
[2] = Staphylococcus aureus, ATCC29213, Tables 1-6 and text, minimum concentration to give >98% inhibition of growth, read-out: MIC
[3] = Staphylococcus aureus, ATCC29213, Table 8, tested at least in duplicate, differing values all given, read-out: MIC

T1 sequence (Q6GG09 whole entry): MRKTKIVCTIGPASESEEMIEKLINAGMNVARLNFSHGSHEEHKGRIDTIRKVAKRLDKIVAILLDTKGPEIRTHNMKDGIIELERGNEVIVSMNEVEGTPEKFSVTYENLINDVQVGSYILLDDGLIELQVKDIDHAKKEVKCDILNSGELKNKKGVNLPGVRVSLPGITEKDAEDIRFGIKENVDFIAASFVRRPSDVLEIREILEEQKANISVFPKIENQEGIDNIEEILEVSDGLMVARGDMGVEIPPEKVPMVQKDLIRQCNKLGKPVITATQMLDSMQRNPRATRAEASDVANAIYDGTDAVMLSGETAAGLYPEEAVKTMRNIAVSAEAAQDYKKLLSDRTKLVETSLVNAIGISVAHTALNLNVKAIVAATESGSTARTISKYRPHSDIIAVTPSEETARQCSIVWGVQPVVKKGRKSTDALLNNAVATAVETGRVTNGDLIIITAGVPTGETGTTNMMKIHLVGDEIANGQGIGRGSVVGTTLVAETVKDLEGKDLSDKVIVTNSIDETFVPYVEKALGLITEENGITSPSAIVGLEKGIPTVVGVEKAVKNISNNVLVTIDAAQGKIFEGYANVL

In the case of Brc1ccc2cc(-c3cc4cc(-c5ccccc5)ccc4[nH]3)[nH]c2c1 [Compound 10g, 6′-Bromo-5-phenyl-1H,1′H-2,2′-biindole], the pIC50 (MRSA PK; [1]) was 8.66, the MIC (S. aureus ATCC 29213; [2]) was > 64 µg/mL and the melting point was 237 to 239 °C.

For Brc1ccc2cc(-c3cc4ccccc4[nH]3)[nH]c2c1 [Compound 10a, 6-Bromo-1H,1′H-2,2′-biindole], the pIC50 (MRSA PK; [1]) was 7.67, the MIC (S. aureus ATCC 29213; [2]) was 2 µg/mL (≈ 6.43 µM) and the “fold more potent in the MIC assay” value (S. aureus ATCC 29213; compared to 10b) was “about 8 fold”. The melting point was 199 to 201 °C.

Work on Brc1ccc2[nH]c(-c3cc4ccccc4o3)cc2c1 [Compound 22e, 2-(Benzofuran-2-yl)-5-bromo-1H-indole] yielded an inhibition at 10 µM (MRSA PK) of 45% and a melting point of 236 to 238 °C.

With COCn1c(-c2cc3ccc(Br)cc3[nH]2)cc2cc(Br)ccc21 [Compound 12c, 5,6′-Dibromo-1-(methoxymethyl)-1H,1′H-2,2′-biindole] the pIC50 (MRSA PK; [1]) was 8.72, the MIC (S. aureus ATCC 29213; [2]) was > 64 µg/mL and the melting point was 199 to 201 °C.

For Brc1cc2cc(-c3cc4ccccc4[nH]3)[nH]c2cc1Br [Compound 10j, 5,6-Dibromo-1H,1′H-2,2′-biindole], the inhibition at 10 µM (MRSA PK) was 39% and the melting point was 233 °C (dec.).

With Brc1ccc2cc(-c3cc4ccccc4s3)[nH]c2c1 [Compound 22c, 2-(Benzo[b]thiophen-2-yl)-6-bromo-1H-indole] the pIC50 (MRSA PK; [1]) was 7.85, the MIC (S. aureus ATCC 29213; [2]) was > 64 µg/mL and the melting point was 250 to 252 °C.

Brc1ccc2cc(-c3cccc(-c4cc5ccccc5[nH]4)c3)[nH]c2c1 [Compound 33f, 2-(3-(1H-indol-2-yl)phenyl)-6-bromo-1H-indole] showed an inhibition at 10 µM (MRSA PK) of 36% and a melting point of 224 to 226 °C.

For COc1ccc2[nH]c(-c3cc4ccc(Br)cc4[nH]3)cc2c1 [Compound 10f, 6′-Bromo-5-methoxy-1H,1′H-2,2′-biindole], the pIC50 (MRSA PK; [1]) was 8.60, the MIC (S. aureus ATCC 29213; [2]) was > 64 µg/mL and the melting point was 240 to 241 °C.

Clc1ccc2[nH]c(-c3cc4ccc(Br)cc4[nH]3)cc2c1 [Compound 10d, 6′-Bromo-5-chloro-1H,1′H-2,2′-biindole] showed a pIC50 (MRSA PK; [1]) of 8.70, an MIC (S. aureus ATCC 29213; [2]) of 0.3 µg/mL (≈ 0.868 µM) and a melting point of 257 to 259 °C.

In the case of Brc1ccc2[nH]c(-c3nc4ccccc4s3)cc2c1 [Compound 22d, 2-(5-Bromo-1H-indol-2-yl)benzo[d]thiazole], the pIC50 (MRSA PK; [1]) was 6.45, the MIC (S. aureus ATCC 29213; [2]) was > 64 µg/mL and the melting point was 208 to 210 °C.

With Brc1ccc2[nH]c(CCc3cc4ccc(Br)cc4[nH]3)cc2c1 [Compound 28b, 6-bromo-2-(2-(5-bromo-1H-indol-2-yl)ethyl)-1H-indole] the pIC50 (MRSA PK; [1]) was 8.20, the MIC (S. aureus ATCC 29213; [2]) was > 64 µg/mL and the melting point was 208 to 210 °C.

In the case of Brc1ccc2cc(C#Cc3cc4ccccc4[nH]3)[nH]c2c1 [Compound 25a, 2-((1H-indol-2-yl)ethynyl)-6-bromo-1H-indole], the pIC50 (MRSA PK; [1]) was 8.15, the fold more potent (MRSA PK) was 3 fold and the MIC (S. aureus ATCC 29213; [2]) was > 64 µg/mL. For the same compound, the melting point was 240 to 242 °C.

In the case of Brc1ccc2c(c1)cc(-c1cc3ccc(Br)cc3[nH]1)n2CCN1CCCCC1 [Compound 72, 5,6′-dibromo-1-(2-(piperidin-1-yl)ethyl)-1H,1′H-2,2′-biindole], the pIC50 (MRSA PK) was 8.43, the MIC (S. aureus ATCC 29213; [2]) was > 64 µg/mL and the melting point was 102 to 104 °C.

With Brc1ccc2[nH]c(-c3nc4ccc(Br)cc4s3)cc2c1 [Compound 22g, 6-Bromo-2-(5-bromo-1H-indol-2-yl)benzo[d]thaizole] the pIC50 (MRSA PK; [1]) was 8.39, the fold more potent (MRSA PK) was “about 5 fold” and the MIC (S. aureus ATCC 29213; [2]) was > 64 µg/mL. For the same compound, the melting point was 246 to 248 °C.

Cn1c(-c2cc3cc(Br)ccc3[nH]2)cc2ccc(Br)cc21 [Compound 12b, 5′,6-Dibromo-1-methyl-1H,2′H-2,2′-biindole] showed an inhibition at 10 µM (MRSA PK) of 25% and a melting point of 192 to 194 °C.

With Brc1ccc2cc(-c3ccc(-c4cc5ccccc5[nH]4)cc3)[nH]c2c1 [Compound 33c, 2-(4-(1H-indol-2-yl)phenyl)-6-bromo-1H-indole] the pIC50 (MRSA PK; [1]) was 8.25, the MIC (S. aureus ATCC 29213; [2]) was > 64 µg/mL and the melting point was > 300 °C.

For O=C(Cn1c(-c2cc3ccc(Br)cc3[nH]2)cc2cc(Br)ccc21)N1CCOCC1 [Compound 15, 2-(5,6′-dibromo-1H,1′H-[2,2′-biindol]-1-yl)-1-morpholinoethanone], the pIC50 (MRSA PK; [1]) was 8.22, the MIC (S. aureus ATCC 29213; [2]) was > 64 µg/mL and the melting point was 320 to 322 °C.

Work on Fc1ccc2[nH]c(-c3cc4ccc(Br)cc4[nH]3)cc2c1 [Compound 10e, 6′-Bromo-5-fluoro-1H,1′H-2,2′-biindole] yielded a pIC50 (MRSA PK; [1]) of 8.55, an MIC (S. aureus ATCC 29213; [2]) of 0.3 µg/mL (≈ 0.911 µM) and a melting point of 246 to 248 °C.

In the case of Clc1ccc(C#Cc2cc3ccc(Br)cc3[nH]2)nc1 [Compound 141, 6-bromo-2-((5-chloropyridin-2-yl)ethynyl)-1H-indole], the pIC50 (MRSA PK) was 6.00 to 7.00 and the MIC (S. aureus ATCC 29213; [3]) was > 64 µg/mL.

In the case of O=[N+]([O-])c1cc(/C=C/c2cc3ccc(Br)cc3[nH]2)ccc1Cl [Compound 97, (E)-6-Bromo-2-(4-chloro-3-nitrostyryl)-1H-indole], the pEC50 (MRSA PK) was 8.07 and the MIC (S. aureus ATCC 29213; [3]) was > 64 µg/mL.

For O=C(Nc1nc2cc(Br)ccc2s1)c1cc2ccccc2[nH]1 [Compound 53, N-(5-Bromobenzo[d]thiazol-2-yl)-1H-indole-2-carboxamide], the pIC50 (MRSA PK; [1]) was 7.29 and the MIC (S. aureus ATCC 29213; [2]) was > 64 µg/mL.

With O=C(c1c(-c2cc3ccccc3[nH]2)[nH]c2cc(Br)ccc12)C(F)(F)F [Compound 177, 1-(6-bromo-1H,1′H-[2,2′-biindol]-3-yl)-2,2,2-trifluoroethan-1-one] the pIC50 (MRSA PK) was < 6.00, the MIC (S. aureus ATCC 29213; [3]) was 2 µg/mL (≈ 4.91 µM) and the “MIC” value (S. aureus ATCC 29213; Table 8, tested at least in duplicate, differing values all given) was 1 µg/mL (≈ 2.46 µM).

Compound FC(F)(F)c1ccc(/C=C/c2cc3ccc(Br)cc3[nH]2)cc1 [Compound 102, (E)-6-Bromo-2-(4-(trifluoromethyl)styryl)-1H-indole] has a pIC50 (MRSA PK) of 6.00 to 7.00 and an MIC (S. aureus ATCC 29213; [3]) of 64 µg/mL (≈ 175 µM).

For CC(=O)c1c(-c2cc3ccccc3[nH]2)[nH]c2cc(Br)ccc12 [Compound 91, 1-(6-bromo-1H,1′H-[2,2′-biindol]-3-yl)ethan-1-one], the pIC50 (MRSA PK) was 8.11 and the MIC (S. aureus ATCC 29213; [2]) was 4 µg/mL (≈ 11.3 µM).

In the case of O=C(Nc1nc2cc(Br)ccc2s1)c1cc2cc(Br)ccc2[nH]1 [Compound 77, 5-Bromo-N-(5-bromobenzo[d]thiazol-2-yl)-1H-indole-2-carboxamide], the pIC50 (MRSA PK) was 8.09 and the MIC (S. aureus ATCC 29213; [2]) was > 64 µg/mL.

For O=C(O)Cn1c(-c2cc3ccc(Br)cc3[nH]2)cc2cc(Br)ccc21 [Compound 14, 2-(5,6′-Dibromo-1H,1′H-[2,2′-biindol]-1-yl)acetic acid], the pIC50 (MRSA PK; [1]) was 7.95, the MIC (S. aureus ATCC 29213; [2]) was > 64 µg/mL and the melting point was 321 to 323 °C.

With Brc1ccc2[nH]c(-c3cc4ccccc4s3)cc2c1 [Compound 22f, 2-(Benzo[b]thiophen-2-yl)-5-bromo-1H-indole] the inhibition at 1 µM (MRSA PK) was 42%, the MIC (S. aureus ATCC 29213; [2]) was > 64 µg/mL and the melting point was 269 to 271 °C.

For Clc1ccc(/C=C/c2cc3ccc(Br)cc3[nH]2)cn1 [Compound 98, (E)-6-Bromo-2-(2-(6-chloropyridin-3-yl)vinyl)-1H-indole], the pIC50 (MRSA PK) was > 7.30 and the MIC (S. aureus ATCC 29213; [3]) was > 64 µg/mL.

With O=C(c1cc2ccc(Br)cc2[nH]1)c1cc2ccccc2cc1O [Compound 42, (6-Bromo-1H-indol-2-yl)(3-hydroxynaphthalen-2-yl)methanone] the inhibition at 10 µM (MRSA PK) was 72% and the MIC (S. aureus ATCC 29213; [2]) was > 64 µg/mL.

O=C(Nc1nc2ccc(Br)cc2s1)c1cccc(Cl)c1O [Compound 83, N-(6-bromobenzo[d]thiazol-2-yl)-3-chloro-2-hydroxybenzamide] gave an inhibition at 1 µM (MRSA PK) of 89% and an MIC (S. aureus ATCC 29213; [2]) of 4 µg/mL (≈ 10.4 µM).

For O=C(O)c1cc(Br)cc2[nH]c(CCc3ccc(Cl)cc3)cc12 [Compound 159, 6-bromo-2-(4-chlorophenethyl)-1H-indole-4-carboxylic acid], the pIC50 (MRSA PK) was 6.00 to 7.00 and the MIC (S. aureus ATCC 29213; [3]) was 64 µg/mL (≈ 169 µM).

With COC(=O)c1c(NCc2cn3ccccc3n2)[nH]c2cc(Br)ccc12 [Compound 166, Methyl 6-bromo-2-(imidazo[1,2-a]pyridin-2-ylmethylamino)-1H-indole-3-carboxylate] the pIC50 (MRSA PK) was < 6.00 and the MIC (S. aureus ATCC 29213; [3]) was > 64 µg/mL.

With Clc1ccc(NCc2cc3ccc(Br)cc3[nH]2)cc1 [Compound 147, N-((6-Bromo-1H-indol-2-yl)methyl)-4-chloroaniline] the pEC50 (MRSA PK) was 6.61 and the MIC (S. aureus ATCC 29213; [3]) was > 64 µg/mL.

In the case of O=C(Nc1ccc(Cl)nc1)c1[nH]c2cc(Br)ccc2c1C(=O)O [Compound 139, 6-Bromo-2-((6-chloropyridin-3-yl)carbamoyl)-1H-indole-3-carboxylic acid], the pIC50 (MRSA PK) was 7.00 to 7.30 and the MIC (S. aureus ATCC 29213; [3]) was > 64 µg/mL.
